Reference: PubChem BioAssay (NCI)
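96-well plates; 48 h exposure; 5 concentrations. Endpoints by linear interpolation between flanking doses. Not reached: highest tested concentration assigned. Here, GI50 denotes the concentration required for 50% inhibition of growth. TGI: total growth inhibition.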

What was measured:
Test in all cases: DTP human tumour cell line panel, 48 h
786-0 renal = tested on: 786-0 renal
A498 renal = tested on: A498 renal
A549 NSCLC = tested on: A549 NSCLC
ACHN renal = tested on: ACHN renal
BT-549 breast = tested on: BT-549 breast
CAKI-1 renal = tested on: CAKI-1 renal
CCRF-CEM leukemia = tested on: CCRF-CEM leukemia
COLO 205 colon = tested on: COLO 205 colon
DU-145 prostate = tested on: DU-145 prostate
EKVX NSCLC = tested on: EKVX NSCLC
HCT-116 colon = tested on: HCT-116 colon
HCT-15 colon = tested on: HCT-15 colon
HL-60(TB) leukemia = tested on: HL-60(TB) leukemia
HOP-62 NSCLC = tested on: HOP-62 NSCLC
HOP-92 NSCLC = tested on: HOP-92 NSCLC
HS 578T breast = tested on: HS 578T breast
HT29 colon = tested on: HT29 colon
IGROV1 ovarian = tested on: IGROV1 ovarian
K-562 leukemia = tested on: K-562 leukemia
KM12 colon = tested on: KM12 colon
LOX IMVI melanoma = tested on: LOX IMVI melanoma
M14 melanoma = tested on: M14 melanoma
MALME-3M melanoma = tested on: MALME-3M melanoma
MCF7 breast = tested on: MCF7 breast
MDA-MB-231 breast = tested on: MDA-MB-231 breast
MDA-MB-435 = tested on: MDA-MB-435
MOLT-4 leukemia = tested on: MOLT-4 leukemia
NCI-H226 lung = tested on: NCI-H226 lung
NCI-H23 lung = tested on: NCI-H23 lung
NCI-H522 lung = tested on: NCI-H522 lung
NCI/ADR-RES ovarian = tested on: NCI/ADR-RES ovarian
OVCAR-3 ovarian = tested on: OVCAR-3 ovarian
OVCAR-4 ovarian = tested on: OVCAR-4 ovarian
OVCAR-5 ovarian = tested on: OVCAR-5 ovarian
OVCAR-8 ovarian = tested on: OVCAR-8 ovarian
PC-3 prostate = tested on: PC-3 prostate
RPMI-8226 leukemia = tested on: RPMI-8226 leukemia
RXF 393 renal = tested on: RXF 393 renal
SF-268 CNS = tested on: SF-268 CNS
SF-295 CNS = tested on: SF-295 CNS
SF-539 CNS = tested on: SF-539 CNS
SK-MEL-2 melanoma = tested on: SK-MEL-2 melanoma
SK-MEL-28 melanoma = tested on: SK-MEL-28 melanoma
SK-MEL-5 melanoma = tested on: SK-MEL-5 melanoma
SK-OV-3 ovarian = tested on: SK-OV-3 ovarian
SN12C renal = tested on: SN12C renal
SNB-19 CNS = tested on: SNB-19 CNS
SNB-75 CNS = tested on: SNB-75 CNS
SR leukemia = tested on: SR leukemia
SW-620 colon = tested on: SW-620 colon
T-47D breast = tested on: T-47D breast
U251 CNS = tested on: U251 CNS
UACC-62 melanoma = tested on: UACC-62 melanoma
UO-31 renal = tested on: UO-31 renal
NCI-H460 lung = tested on: NCI-H460 lung
TK-10 renal = tested on: TK-10 renal
UACC-257 melanoma = tested on: UACC-257 melanoma
HCC-2998 colon = tested on: HCC-2998 colon

## COC(=O)C[C@H](COCc1ccccc1)NC(=O)C[C@H](COCc1ccccc1)NC(=O)OC(C)(C)C
786-0 renal
  TGI: 40.8 µM
A498 renal
  TGI: 61.9 µM
A549 NSCLC
  TGI: 62.4 µM
ACHN renal
  TGI: > 100 µM
BT-549 breast
  TGI: 51.9 µM
CAKI-1 renal
  TGI: > 100 µM
CCRF-CEM leukemia
  TGI: > 100 µM
COLO 205 colon
  TGI: > 100 µM
DU-145 prostate
  TGI: 44.9 µM
EKVX NSCLC
  TGI: 45.4 µM
HCT-116 colon
  TGI: 81.2 µM
HCT-15 colon
  TGI: > 100 µM
HL-60(TB) leukemia
  TGI: > 100 µM
HOP-62 NSCLC
  TGI: 49.2 µM
HOP-92 NSCLC
  TGI: 65.5 µM
HS 578T breast
  TGI: 67.1 µM
HT29 colon
  TGI: > 100 µM
IGROV1 ovarian
  TGI: > 100 µM
K-562 leukemia
  TGI: > 100 µM
KM12 colon
  TGI: > 100 µM
LOX IMVI melanoma
  TGI: > 100 µM
M14 melanoma
  TGI: > 100 µM
MALME-3M melanoma
  TGI: > 100 µM
MCF7 breast
  TGI: 51.1 µM
MDA-MB-231 breast
  TGI: > 100 µM
MDA-MB-435
  TGI: > 100 µM
MOLT-4 leukemia
  TGI: > 100 µM
NCI-H226 lung
  TGI: > 100 µM
NCI-H23 lung
  TGI: > 100 µM
NCI-H522 lung
  TGI: 54 µM
NCI/ADR-RES ovarian
  TGI: 72.2 µM
OVCAR-3 ovarian
  TGI: 86.9 µM
OVCAR-4 ovarian
  TGI: 36.7 µM
OVCAR-5 ovarian
  TGI: 99.8 µM
OVCAR-8 ovarian
  TGI: 61.7 µM
PC-3 prostate
  TGI: 77.6 µM
RPMI-8226 leukemia
  TGI: > 100 µM
RXF 393 renal
  TGI: 63.3 µM
SF-268 CNS
  TGI: 40.5 µM
SF-295 CNS
  TGI: > 100 µM
SF-539 CNS
  TGI: > 100 µM
SK-MEL-2 melanoma
  TGI: > 100 µM
SK-MEL-28 melanoma
  TGI: > 100 µM
SK-MEL-5 melanoma
  TGI: > 100 µM
SK-OV-3 ovarian
  TGI: 59.8 µM
SN12C renal
  TGI: 80.6 µM
SNB-19 CNS
  TGI: 44.2 µM
SNB-75 CNS
  TGI: 61.2 µM
SR leukemia
  TGI: > 100 µM
SW-620 colon
  TGI: > 100 µM
T-47D breast
  TGI: 98.7 µM
U251 CNS
  TGI: 67.7 µM
UACC-62 melanoma
  TGI: > 100 µM
UO-31 renal
  TGI: > 100 µM

## S=C1N=C(Cl)/C(=C\c2ccco2)N1
786-0 renal
  TGI: > 100 µM
A498 renal
  TGI: > 100 µM
A549 NSCLC
  TGI: > 100 µM
ACHN renal
  TGI: > 100 µM
BT-549 breast
  TGI: > 100 µM
CAKI-1 renal
  TGI: > 100 µM
CCRF-CEM leukemia
  TGI: > 100 µM
COLO 205 colon
  TGI: > 100 µM
DU-145 prostate
  TGI: > 100 µM
EKVX NSCLC
  TGI: > 100 µM
HCT-116 colon
  TGI: > 100 µM
HCT-15 colon
  TGI: > 100 µM
HL-60(TB) leukemia
  TGI: > 100 µM
HOP-62 NSCLC
  TGI: > 100 µM
HOP-92 NSCLC
  TGI: > 100 µM
HS 578T breast
  TGI: > 100 µM
HT29 colon
  TGI: > 100 µM
IGROV1 ovarian
  TGI: > 100 µM
K-562 leukemia
  TGI: > 100 µM
KM12 colon
  TGI: > 100 µM
LOX IMVI melanoma
  TGI: > 100 µM
M14 melanoma
  TGI: > 100 µM
MALME-3M melanoma
  TGI: > 100 µM
MCF7 breast
  TGI: > 100 µM
MDA-MB-231 breast
  TGI: > 100 µM
MDA-MB-435
  TGI: > 100 µM
NCI-H226 lung
  TGI: > 100 µM
NCI-H23 lung
  TGI: > 100 µM
NCI-H460 lung
  TGI: > 100 µM
NCI-H522 lung
  TGI: > 100 µM
NCI/ADR-RES ovarian
  TGI: > 100 µM
OVCAR-3 ovarian
  TGI: > 100 µM
OVCAR-4 ovarian
  TGI: > 100 µM
OVCAR-5 ovarian
  TGI: > 100 µM
OVCAR-8 ovarian
  TGI: > 100 µM
PC-3 prostate
  TGI: > 100 µM
RPMI-8226 leukemia
  TGI: > 100 µM
RXF 393 renal
  TGI: > 100 µM
SF-268 CNS
  TGI: > 100 µM
SF-295 CNS
  TGI: > 100 µM
SF-539 CNS
  TGI: > 100 µM
SK-MEL-2 melanoma
  TGI: > 100 µM
SK-MEL-28 melanoma
  TGI: > 100 µM
SK-MEL-5 melanoma
  TGI: > 100 µM
SK-OV-3 ovarian
  TGI: > 100 µM
SN12C renal
  TGI: > 100 µM
SNB-19 CNS
  TGI: > 100 µM
SNB-75 CNS
  TGI: > 100 µM
SR leukemia
  TGI: > 100 µM
SW-620 colon
  TGI: > 100 µM
T-47D breast
  TGI: > 100 µM
TK-10 renal
  TGI: > 100 µM
U251 CNS
  TGI: > 100 µM
UACC-257 melanoma
  TGI: > 100 µM
UACC-62 melanoma
  TGI: > 100 µM
UO-31 renal
  TGI: > 100 µM

## Nc1ccc2ccc(NS(=O)(=O)N3CCCCC3)cc2c1
786-0 renal
  GI50: 5.32 µM
  TGI: > 100 µM
A498 renal
  GI50: 0.176 µM
  TGI: 0.872 µM
A549 NSCLC
  GI50: 1 µM
  TGI: > 46 µM
ACHN renal
  GI50: 3.64 µM
  TGI: > 100 µM
BT-549 breast
  GI50: 0.69 µM
  TGI: > 84.3 µM
CAKI-1 renal
  GI50: 0.584 µM
  TGI: > 100 µM
CCRF-CEM leukemia
  GI50: 0.46 µM
  TGI: > 100 µM
COLO 205 colon
  GI50: 0.369 µM
  TGI: 1.65 µM
DU-145 prostate
  GI50: 1.45 µM
  TGI: 22.2 µM
EKVX NSCLC
  GI50: 2.05 µM
  TGI: > 100 µM
HCC-2998 colon
  GI50: 0.707 µM
  TGI: > 24.8 µM
HCT-116 colon
  GI50: 0.514 µM
  TGI: > 38.7 µM
HCT-15 colon
  GI50: 0.44 µM
  TGI: > 100 µM
HL-60(TB) leukemia
  GI50: 0.327 µM
  TGI: > 100 µM
HOP-62 NSCLC
  TGI: > 100 µM
HOP-92 NSCLC
  GI50: 0.532 µM
  TGI: 73.1 µM
HS 578T breast
  GI50: 0.396 µM
  TGI: 5.99 µM
HT29 colon
  GI50: 0.4 µM
  TGI: > 100 µM
IGROV1 ovarian
  GI50: 0.765 µM
  TGI: > 100 µM
K-562 leukemia
  GI50: 0.354 µM
  TGI: > 100 µM
KM12 colon
  GI50: 0.273 µM
  TGI: > 65.7 µM
LOX IMVI melanoma
  GI50: 1.03 µM
  TGI: > 100 µM
MALME-3M melanoma
  GI50: 0.489 µM
  TGI: > 100 µM
MCF7 breast
  GI50: 0.295 µM
  TGI: > 100 µM
MDA-MB-231 breast
  GI50: 0.728 µM
  TGI: > 33.7 µM
MOLT-4 leukemia
  GI50: 0.524 µM
  TGI: > 100 µM
NCI-H226 lung
  GI50: 2.56 µM
  TGI: > 100 µM
NCI-H23 lung
  GI50: 1.53 µM
  TGI: > 63.8 µM
NCI-H460 lung
  GI50: 0.409 µM
NCI-H522 lung
  GI50: 0.205 µM
  TGI: 0.76 µM
OVCAR-4 ovarian
  GI50: 1.82 µM
  TGI: > 100 µM
OVCAR-5 ovarian
  TGI: > 100 µM
OVCAR-8 ovarian
  GI50: 1.63 µM
  TGI: > 100 µM
PC-3 prostate
  GI50: 1.28 µM
  TGI: > 100 µM
RPMI-8226 leukemia
  GI50: 0.507 µM
  TGI: > 49.6 µM
SF-268 CNS
  GI50: 1.57 µM
  TGI: > 100 µM
SF-295 CNS
  GI50: 0.228 µM
  TGI: 2.88 µM
SK-MEL-2 melanoma
  TGI: > 100 µM
SK-MEL-28 melanoma
  GI50: 0.664 µM
  TGI: > 100 µM
SK-MEL-5 melanoma
  GI50: 0.285 µM
  TGI: 4.52 µM
SK-OV-3 ovarian
  GI50: 0.498 µM
SN12C renal
  GI50: 0.653 µM
  TGI: > 100 µM
SNB-19 CNS
  GI50: 0.797 µM
  TGI: > 100 µM
SNB-75 CNS
  GI50: 0.446 µM
  TGI: > 100 µM
SR leukemia
  GI50: 0.215 µM
  TGI: > 100 µM
SW-620 colon
  GI50: 0.336 µM
  TGI: > 100 µM
T-47D breast
  GI50: 0.381 µM
  TGI: > 75.3 µM
TK-10 renal
  GI50: 3.15 µM
  TGI: > 100 µM
U251 CNS
  GI50: 0.392 µM
  TGI: > 42 µM
UACC-257 melanoma
  GI50: 12.9 µM
  TGI: > 100 µM
UACC-62 melanoma
  GI50: 0.301 µM
  TGI: > 100 µM
UO-31 renal
  GI50: 1.7 µM
  TGI: > 100 µM
